Measurements from patent publication US4148795A, “Dithiocarbamate ester bactericides and fungicides” (American Cyanamid Company, priority 1976, dated 1979).
Values joined by “and” are separate entries in the source; they are usually repeats but may differ in a detail not shown here. Equal values may be shown once. Read-outs that look alike come from different tables or passages of the source.

Experiments:
[1] = tested on: Piricularia oryzae; format: in vivo; set-up: scale not given here; conditions: Rice Blast, five days
[2] = tested on: Colletotrichum lagenarium; conditions: in vivo; further: key: 5: clean, no disease; 4: trace of disease; 3: slight disease; 2: moderate disease; 1: severe disease; 0: like controls
[3] = tested on: Aerobacter aerogenes; format: cell-based; conditions: 100 ppm; subcultures 72 hours at 37° C; further: key: 0: No Effect; 9: Kill of Bacteria; 5: Stasis, but not Kill of all Bacteria
[4] = tested on: Pythium de Baryanum; assay: Agar dilution plate; format: cell-based; conditions: Pd; 100 ppm, 72 hours at 23° C
Experimental: (§1) Test compounds were incorporated in a Sabouraud's dextrose agar in an amount sufficient to provide the active ingredient in a concentration of about 100 ppm. A twenty-ml. sample of the agar mixture is placed in a petri dish and permitted to solidify. An agar sample is inoculated with the test organism set forth below and then covered and incubated for a period of about 72 hours at 23° C. After incubation, growth observations are made. The test results are recorded and the test is repeated twice for the purpose of comparison.
(§2) The data obtained with a variety of test organisms is shown in the table below, and ratings are shown as 0 or 5. O indicates no control, 5 indicates 100% effectiveness of the test compound against the specified organism.

[5] = tested on: Fusarium lycopersici; assay: Agar dilution plate; format: cell-based; conditions: Fl; 100 ppm, 72 hours at 23° C
Experimental: as §1, §2

[6] = tested on: Rhizoctonia solani; assay: Agar dilution plate; format: cell-based; conditions: Rs; 100 ppm, 72 hours at 23° C
Experimental: as §1, §2

[7] = tested on: Aspergillus niger; assay: Agar dilution plate; format: cell-based; conditions: An; 100 ppm, 72 hours at 23° C
Experimental: as §1, §2

[8] = tested on: Monilinia fructicola; assay: Agar dilution plate; format: cell-based; conditions: Mf; 100 ppm, 72 hours at 23° C
Experimental: as §1, §2

[9] = tested on: Pseudomonas solaracaerum; format: cell-based; conditions: 100 ppm, 72 hours at 23° C
[10] = tested on: Xanthomonas vesicatoria; format: cell-based; conditions: 100 ppm; subcultures 72 hours at 37° C; further: key: 0: No Effect; 9: Kill of Bacteria; 5: Stasis, but not Kill of all Bacteria
[11] = tested on: Staphylococcus aureus; format: cell-based; conditions: 100 ppm; subcultures 72 hours at 37° C; further: key: 0: No Effect; 9: Kill of Bacteria; 5: Stasis, but not Kill of all Bacteria
[12] = tested on: Venturia inaequalis; conditions: in vivo; further: key: 5: clean, no disease; 4: trace of disease; 3: slight disease; 2: moderate disease; 1: severe disease; 0: like controls
[13] = tested on: Phytophthora infestans; format: in vivo; set-up: scale not given here; conditions: Tomato Late Blight, five days
[14] = tested on: Stemphylium sarcinaeforme; assay: Agar dilution plate; format: cell-based; conditions: Ss; 100 ppm, 72 hours at 23° C
Experimental: as §1, §2
Ss= Stemphylium sarcinaeforme

[15] = tested on: Verticillium albo-atrum; assay: Agar dilution plate; format: cell-based; conditions: Va; 100 ppm, 72 hours at 23° C
Experimental: as §1, §2
Va= Verticillium albo-atrum

[16] = tested on: Collectotrichum lagenarium; assay: Agar dilution plate; format: cell-based; conditions: Cl; 100 ppm, 72 hours at 23° C
Experimental: as §1, §2
Cl= Collectotrichum lagenarium

[17] = tested on: Stemphylium sarcinaeforme; assay: Spore germination inhibition; format: cell-based; conditions: Stemphylium sarciniforme; for inhibition at 100 ppm: 24 h, read-out: % Inhibition of Spore Germination; for inhibition at 1 ppm / inhibition at 10 ppm: 24 hours
Description: (§3) The test procedure involves the preparation of a 100, 10 or 1 ppm. suspension of test compound in water. The solutions are placed in one dram "opticlear" vials and separately inoculated with one drop of a spore suspension prepared from seven-day cultures of Aspergillus niger and 14-day old cultures of Monilinia fructicola and Stemphylium sarcinaeforme,all grown on potato-dextrose agar. The vials containing the separately inoculated solutions of test compounds are then capped and placed on a rotating tumbler for 24 hours to assure contact of the organism with the test compound. After 24 hours, the vials are removed and examined for inhibition of […].

[18] = tested on: Aspergillus niger; assay: Spore germination inhibition; format: cell-based; conditions: 24 hours
Description: as §3

[19] = tested on: Monilinia fructicola; assay: Spore germination inhibition; format: cell-based; conditions: for inhibition at 1 ppm / inhibition at 10 ppm: 24 hours; for inhibition at 100 ppm: 24 h, read-out: % Inhibition of Spore Germination
Description: as §3

Row | Compound | disease control index ([1]; 150 ppm) | disease control index ([1]; 300 ppm) | Antibacterial Activity rating [3] | Agar Dilution Plate rating [4] | Agar Dilution Plate rating [5] | Agar Dilution Plate rating [6] | Agar Dilution Plate rating [7] | Agar Dilution Plate rating [8] | Agar Dilution Plate rating [9] | Antibacterial Activity rating [10] | Antibacterial Activity rating [11] | disease control index [12] | disease control index ([13]; 150 ppm) | disease control index ([13]; 300 ppm) | Agar Dilution Plate rating [14] | Agar Dilution Plate rating [15] | Agar Dilution Plate rating [16] | inhibition at 100 ppm [17] [%] | inhibition at 1 ppm [17] [%] | inhibition at 10 ppm [17] [%] | further results
1 | O=[N+]([O-])CC(SC(=S)N1CCCC1)c1ccccc1 (stereo not drawn) [Example 15, α-(Nitromethyl)benzyl 1-pyrrolidinecarbodithioate] | 4 | 4 |  |  |  |  |  |  |  |  |  |  |  |  |  |  |  |  |  |  | disease control index [2]: 5
2 | CN(C)C(=S)SC(C[N+](=O)[O-])c1cccs1 (stereo not drawn) [Example 33, α-(Nitromethyl)-2-thenyl Dimethyldithiocarbamate] | 5 | 5 | 0 | 0 | 0 | 0 | 0 | 5 (100% effectiveness of the test compound against the specified organism) | 0 | 0 | 5 | 5 | 5 | 5 | 5 (100% effectiveness of the test compound against the specified organism) | 0 | 5 (100% effectiveness of the test compound against the specified organism) | 100 | 100 | 100 | inhibition at 1 ppm [18]: 0%; inhibition at 10 ppm [18]: 100%; inhibition at 100 ppm [18]: 100%; inhibition at 1 ppm [19]: 100%; inhibition at 10 ppm [19]: 100%; inhibition at 100 ppm [19]: 100%
3 | CN(C)C(=S)SC(C[N+](=O)[O-])c1ccc(Br)cc1 (stereo not drawn) [Example 30, p-Bromo-α-(nitromethyl)benzyl Dimethyldithiocarbamate] | 5 | 5 | 0 | 5 (100% effectiveness of the test compound against the specified organism) | 0 | 5 (100% effectiveness of the test compound against the specified organism) | 0 | 5 (100% effectiveness of the test compound against the specified organism) | 0 | 0 | 5 | 5 | 2 | 3 | 0 | 0 | 5 (100% effectiveness of the test compound against the specified organism) | 100 | 0 | 100 | disease control index ([13]; 600 ppm): 3; disease control index ([13]; 1200 ppm): 4; disease control index ([1]; 600 ppm): 5; disease control index ([1]; 1200 ppm): 5; inhibition at 1 ppm [18]: 0%; inhibition at 10 ppm [18]: 100%; inhibition at 100 ppm [18]: 100%; inhibition at 1 ppm [19]: 100%; inhibition at 10 ppm [19]: 100%; inhibition at 100 ppm [19]: 100%
4 | CN(C)C(=S)SC(C[N+](=O)[O-])c1ccccc1Cl (stereo not drawn) [Example 27, o-Chloro-α-(nitromethyl)benzyl Dimethyldithiocarbamate] | 2 | 4 | 9 | 5 (100% effectiveness of the test compound against the specified organism) | 5 (100% effectiveness of the test compound against the specified organism) | 0 | 0 | 5 (100% effectiveness of the test compound against the specified organism) | 0 | 5 | 5 | 5 and 0 | 2 | 2 | 5 (100% effectiveness of the test compound against the specified organism) | 5 (100% effectiveness of the test compound against the specified organism) | 5 (100% effectiveness of the test compound against the specified organism) | 100 | 100 | 100 | disease control index ([13]; 600 ppm): 4; disease control index ([13]; 1200 ppm): 4; disease control index ([1]; 600 ppm): 4; disease control index ([1]; 1200 ppm): 4; inhibition at 1 ppm [18]: 0%; inhibition at 10 ppm [18]: 100%; inhibition at 100 ppm [18]: 100%; inhibition at 1 ppm [19]: 0%; inhibition at 10 ppm [19]: 100%; inhibition at 100 ppm [19]: 100%
5 | O=[N+]([O-])C(CSC(=S)N1CCCCC1)CSC(=S)N1CCCCC1 [Example 3, 2-Nitrotrimethylene 1-Piperidinecarbodithioate] | 5 | 5 |  |  |  |  |  |  |  |  |  |  | 4 | 4 |  |  |  |  |  |  | disease control index [2]: 4
6 | COc1ccc(C(C[N+](=O)[O-])SC(=S)N(C)C)cc1OC (stereo not drawn) [Example 25, 3,4-Dimethoxy-α-(nitromethyl)benzyl Dimethyldithiocarbamate] | 3 | 4 | 5 | 5 (100% effectiveness of the test compound against the specified organism) | 0 | 0 | 0 | 5 (100% effectiveness of the test compound against the specified organism) | 0 | 5 | 5 | 5 | 5 | 5 | 5 (100% effectiveness of the test compound against the specified organism) | 5 (100% effectiveness of the test compound against the specified organism) | 5 (100% effectiveness of the test compound against the specified organism) | 100 | 100 | 100 | disease control index ([13]; 600 ppm): 5; disease control index ([13]; 1200 ppm): 5; disease control index ([1]; 600 ppm): 5; disease control index ([1]; 1200 ppm): 4; inhibition at 1 ppm [18]: 0%; inhibition at 10 ppm [18]: 100%; inhibition at 100 ppm [18]: 100%; inhibition at 1 ppm [19]: 0%; inhibition at 10 ppm [19]: 100%; inhibition at 100 ppm [19]: 100%
7 | CN(C)C(=S)SCC(CSC(=S)N(C)C)[N+](=O)[O-] [Example 1, 2-Nitrotrimethylene Dimethyldithiocarbamate] | 2 | 2 | 0 | 0 | 0 | 0 | 0 | 5 (100% effectiveness of the test compound against the specified organism) | 0 | 0 | 5 | 3 and 0 | 3 | 4 | 5 (100% effectiveness of the test compound against the specified organism) | 0 | 5 (100% effectiveness of the test compound against the specified organism) | 100 | 100 | 100 | disease control index ([13]; 600 ppm): 4; disease control index ([13]; 1200 ppm): 5; disease control index ([1]; 600 ppm): 3; disease control index ([1]; 1200 ppm): 3; inhibition at 1 ppm [18]: 100%; inhibition at 10 ppm [18]: 100%; inhibition at 100 ppm [18]: 100%; inhibition at 1 ppm [19]: 100%; inhibition at 10 ppm [19]: 100%; inhibition at 100 ppm [19]: 100%
